Source: patent US20080267936A1, “Treatment of trauma-hemorrhage with short oligopeptides” (Biotempt B.V., priority 2007, published 2008)

Assays:
IL-6 [1] = assay: Hemorrhagic shock model, Example 2: IL-6 mRNA transcripts in tissue by RQ-PCR; format: in vivo, Wistar rats; settings: 180 minutes after onset of shock, 10 mg/kg, normalized against GAPDH
Protocol: (§1) Experimental procedures: After an acclimatization period of 15 minutes, the rats were randomized into five different groups: 1) sham, 2) hemorrhagic shock (HS), 3) hemorrhagic shock with LQGV (SEQ ID NO:2) treatment (HS/LQGV (SEQ ID NO:2)), 4) hemorrhagic shock with AQGV treatment (HS/AQGV (SEQ ID NO:1)) and 5) hemorrhagic shock with LAGV (SEQ ID NO:3) treatment (HS/LAGV (SEQ ID NO:3). Hemorrhagic shock was induced by blood withdrawal, reducing the circulating blood volume until a mean arterial pressure (MAP) of […] mmHg was reached. This level of hypotension was maintained for 60 minutes. After 30 minutes, rats received either a single bolus injection of 10 mg/kg LQGV (SEQ ID NO:2), AQGV (SEQ ID NO:1), LAGV (SEQ ID NO:3), or 0.9% NaCl solution. The peptides and dosage were based on previous studies, in which we performed dose-escalation experiments (manuscript in preparation). Sixty minutes after induction of hemorrhagic shock, rats were resuscitated by autologous blood transfusion over a period of 30 minutes and monitored for another 120 minutes, after which they were sacrificed (FIG. 7, Panel A). Sham animals underwent the same surgical procedure as the hemorrhagic shock animals, but without performing hemorrhage and administration of peptides.
(§2) Tissue collection and storage: Liver, lungs, ileum and sigmoid were surgically removed at the end of the experiment, snap-frozen, and stored at −80° C., until assayed.
(§3) Evaluation of mRNA levels by real-time quantitative (RQ)-PCR: RNA was isolated using a QIAGEN kit (QIAGEN, Hilden, Germany), according to the manufacturer's instructions. TNF-α, IL-6 and ICAM-1 transcripts were determined by RQ-PCR using an Applied Biosystems 7700 PCR machine (Foster City, Calif., USA) as described previously.^[27] TNF-α, IL-6 and ICAM-1 expression was quantified by normalization against GAPDH.
(§4) Statistical analysis: Statistical analysis was performed using SPSS version 11 software (SPSS Inc., Chicago, Ill.). Inter-group differences were analyzed with Kruskal-Wallis statistical test.

hemorrhagic shock = assay: Hemorrhagic shock model, Example 1 (bled to MAP 40 mmHg, 0.9% NaCl resuscitation): blood cells, hematocrit, hepatic blood flow; format: in vivo, Wistar rats; settings: for leukocyte concentration, peptide-treated vs non-treated animals: 5 mg/kg i.v. 30 minutes after induction of shock; for leukocytes, minimum during trauma-hemorrhage: 100% at T0, 5 mg/kg i.v. single bolus 30 minutes after induction of shock; for arterial hepatic blood flow during the shock period: control group 102.6±23.5%; for concentrations of circulating macrophages and granulocytes compared to the non-treated animals: 120 minutes after the onset of hemorrhagic shock, single dose; for blood levels of circulating macrophages and granulocytes / concentrations of circulating macrophages and granulocytes compared with the corresponding experimental group / decrease of circulating macrophages and granulocytes compared with concentrations after trauma-hemorrhage: 180 minutes after onset of trauma-hemorrhage
Protocol: Adult male specific pathogen-free Wistar rats (Harlan CPB, Zeist, The Netherlands), weighing 350 to 400 g were used after a minimum seven-day acclimation period. The animals were housed under barrier conditions and kept at 25° C. with a twelve-hour light/dark cycle. Rats were allowed free access to water and chow (−). All procedures were performed in accordance with the Principles of Laboratory Animal Care (NIH publication No. 86-23, revised 1985) under a protocol approved by the Committee on Animal Research of the Erasmus University (protocol EUR 365).
The rats were fasted overnight but were allowed free access to water before the experiment. Subsequent to endotracheal intubation, the rats were mechanically ventilated with an isoflurane (−) N2O/O2 mixture at 60 breaths/minute. Body temperature was continuously maintained at 37.5° C. by placing the animals on a thermo controlled “half-pipe” (UNO, The Netherlands). Polyethylene tubes (PE-50, Becton Dickinson; St. Michielsgestel, The Netherlands) were flushed with heparin and placed via the right carotid artery in the aorta and in the right internal jugular vein. The animals received no heparin before or during the experiment.
Mean arterial pressures (MAP) was measured using transducers (Becton Dickinson) that were connected in line to an electronic recorder (Hewlett Packard, 78354-A Germany) for electronically calculated mean pressures and continuous measurement of the animal's blood pressure. Under semi-sterile conditions, a median laparotomy was performed and ultrasonic perivascular flow probes (Transonic Systems Inc, Maastricht, The Netherlands) were placed on the common hepatic artery and the portal vein. A supra pubic catheter was placed to monitor the urine production during and after resuscitation.
After an acclimatization period of 20 minutes, the rats were randomized into the following five groups: • Hemorrhagic shock group were bled within ten minutes to a mean arterial pressure (MAP) of 40 mmHg and maintained at this level for 60 minutes by withdrawing or re-infusing shed blood as needed. Thereafter, the animals were resuscitated with plus minus four times the volume of the withdrawn blood over 30 minutes with a 0.9% NaCl solution. • The hemorrhagic shock group+peptide A (LAGV (SEQ ID NO:3); one-letter amino acid code) underwent the same procedure as the hemorrhagic shock group but received a single bolus injection of 5 mg/kg peptide A intravenously 30 minutes after the induction of shock. • The hemorrhagic shock group+peptide B (AQGV (SEQ ID NO:1)) underwent the same procedure as the hemorrhagic shock group and received a single bolus injection of 5 mg/kg peptide B intravenously, 30 minutes after the induction of shock. • The hemorrhagic shock group+peptide C (LQGV (SEQ ID NO:2)) underwent the same procedure as the hemorrhagic shock group and received a single bolus injection of 5 mg/kg peptide C intravenously, 30 minutes after the induction of shock. • Sham group underwent the same procedure as the hemorrhagic shock group without performing the hemorrhage or administration of any kind of peptides.
The hepatic arterial blood flow (QHA) and hepatic portal venous blood flow (QVP) were measured with transit time ultrasonic perivascular flow probes, connected to an ultrasonic meter (T201; Transonic Systems, Inc., Maastricht, NL). Systemic and hepatic hemodynamics were continuously measured. At regular time points, arterial blood samples were taken. The animals were euthanized by withdrawal of arterial blood via the carotid artery.
Plasma collection and storage: Whole arterial blood was obtained at −15, 30, 60, 90, 120, 150 and 180 minutes after induction of shock via the right carotid artery and collected in duplo. 0.2 ml was placed in tubes (Eppendorf EDTA KE/1.3) to be assayed in the coulter counter (−). 0.5 ml was placed in Minicollect tubes (Bio-one, Greiner) centrifuged for five minutes, immediately frozen, and stored at −80° C., until assayed. […]

TNF-α [2] = assay: Hemorrhagic shock model, Example 2: TNF-α mRNA transcripts in tissue by RQ-PCR; format: in vivo, Wistar rats; settings: 180 minutes after onset of shock, 10 mg/kg, normalized against GAPDH
Protocol: as §1, §2, §3, §4

TNF-α [3] = assay: Hemorrhagic shock model, Example 2: TNF-α plasma levels by ELISA; format: in vivo, Wistar rats; settings: for increase in plasma TNF-α levels during the experiment: 10 mg/kg single bolus 30 minutes after onset of shock, up to 180 minutes; for TNF-α plasma levels: 10 mg/kg single dose after induction of hemorrhagic shock, vs non-treated HS
Protocol: (§5) Adult male specific pathogen-free Wistar rats (Harlan CPB, Zeist, The Netherlands), weighing 350 to 400 g were used. Animals were housed under barrier conditions at 25° C. with a twelve-hour light/dark cycle, and were allowed food and water ad libitum. The experimental protocol was approved by the Animal Experiment Committee under the Dutch Experiments on Animals Act and adhered to the rules laid down in this national law that serves the implementation of “Guidelines on the protection of experimental animals” by the Council of Europe (1986), Directive 86/609/EC.
(§6) Synthetic oligopeptides: The oligopeptides (LQGV (SEQ ID NO:2), AQGV (SEQ ID NO:1), and LAGV (SEQ ID NO:3)) were synthesized by Ansynth Service B.V. (Roosendaal, The Netherlands) and dissolved in 0.9% NaCl at a concentration of 10 mg/ml.
Surgical procedures: Rats were food deprived overnight before the experiment, but were allowed water ad libitum. Rats were anesthetized using a mixture of N2O/O2 isoflurane (Pharmachemie B.V., Haarlem, The Netherlands). Body temperature was continuously maintained at 37.5° C. by placing the rats on a thermo controlled “half-pipe” (UNO, Rotterdam, The Netherlands). Endotracheal intubation was performed, and rats were ventilated at 60 breaths per minute with a mixture of N2O/O2 2% isoflurane. Polyethylene tubes (PE-50, Becton Dickinson; St. Michielsgestel, The Netherlands) were flushed with heparin and placed via the right carotid artery in the aorta and in the right internal jugular vein. The rats received no heparin before or during the experiment.
as §1
Plasma collection and storage: Arterial blood was obtained 15 minutes before and 30, 60, 90, 120, 150 and 180 minutes after onset of hemorrhage (FIG. 7, Panel A). After blood withdrawal, leukocyte numbers were determined using a coulter counter (Beckman Coulter, Mijdrecht, The Netherlands) and corrected for the hematocrit. Approximately 0.3 ml of blood was placed into mini collect tubes (Greiner, Bio-one, Alphen a/d Rijn, The Netherlands), plasma was obtained by centrifugation (1500 r.p.m.; five minutes), immediately frozen, and stored at −80° C., until assayed.
Measurement of cytokines: TNF-α and IL-6 plasma levels were determined by ELISA (R&D Systems Europe Ltd., Abingdon, UK), according to the manufacturer's instructions.
as §4

ICAM-1 = assay: Hemorrhagic shock model, Example 2: ICAM-1 mRNA transcripts in tissue by RQ-PCR; format: in vivo, Wistar rats; settings: 180 minutes after onset of shock, 10 mg/kg, normalized against GAPDH
Protocol: as §1, §2, §3, §4

IL-6 [4] = assay: Hemorrhagic shock model, Example 2: IL-6 plasma levels by ELISA; format: in vivo, Wistar rats; settings: 10 mg/kg single dose; 120, 150 and 180 minutes after onset of shock
Protocol: as §5, §6
Surgical procedures: Rats were food deprived overnight before the experiment, but were allowed water ad libitum. Rats were anesthetized using a mixture of N2O/O2 isoflurane (Pharmachemie B.V., Haarlem, The Netherlands). […]
Experimental procedures: After an acclimatization period of 15 minutes, the rats were randomized into five different groups: 1) sham, 2) hemorrhagic shock (HS), 3) hemorrhagic shock with LQGV (SEQ ID NO:2) treatment (HS/LQGV (SEQ ID NO:2)), 4) hemorrhagic shock with AQGV treatment (HS/AQGV (SEQ ID NO:1)) and 5) hemorrhagic shock with LAGV (SEQ ID NO:3) treatment (HS/LAGV (SEQ ID NO:3). […] Sixty minutes after induction of hemorrhagic shock, rats were resuscitated by autologous blood transfusion over a period of 30 minutes and monitored for another 120 minutes, after which they were sacrificed (FIG. 7, Panel A). […]
Plasma collection and storage: Arterial blood was obtained 15 minutes before and 30, 60, 90, 120, 150 and 180 minutes after onset of hemorrhage (FIG. 7, Panel A). After blood withdrawal, leukocyte numbers were determined using a coulter counter (Beckman Coulter, Mijdrecht, The Netherlands) and corrected for the hematocrit. […]

[5] = system: pro-inflammatory cytokines; settings: 150 mg/kg; cited from earlier work

Substance: LAGV [synthetic tetrapeptide, alanine replacement variant of LQGV from loop two of the β-subunit of hCG]
- IL-6 mRNA transcripts in the liver compared to the HS group (IL-6 [1]): reduction
- leukocyte concentration, peptide-treated vs non-treated animals (hemorrhagic shock): No significant difference
- leukocytes, minimum during trauma-hemorrhage (hemorrhagic shock): 42.0±8.7%
- arterial hepatic blood flow during the shock period (hemorrhagic shock; 5 mg/kg i.v.): 21.3±9.1%
- TNF-α transcripts in the liver compared to non-treated HS (TNF-α [2]): reduction
- increase in plasma TNF-α levels during the experiment (TNF-α [3]): none
- TNF-α plasma levels (TNF-α [3]): significant reduction
- ICAM-1 transcript levels in the liver (ICAM-1): did not affect
- IL-6 plasma levels compared to the non-treated hemorrhagic shock group (IL-6 [4]): significant reduction

Substance: Alanine-glutamine dipeptide [AG]
- mRNA expression of pro-inflammatory cytokines in the liver after hemorrhagic shock [5]: inhibited

Substance: AQGV [synthetic tetrapeptide, alanine replacement variant of LQGV from loop two of the β-subunit of hCG]
- IL-6 mRNA transcripts in the liver compared to the HS group (IL-6 [1]): significant reduction
- leukocyte concentration, peptide-treated vs non-treated animals (hemorrhagic shock): No significant difference
- leukocytes, minimum during trauma-hemorrhage (hemorrhagic shock): 47.3±12.4%
- concentrations of circulating macrophages and granulocytes compared to the non-treated animals (hemorrhagic shock): decreased
- blood levels of circulating macrophages and granulocytes (hemorrhagic shock; 5 mg/kg i.v.): 4,432±0.736 10^9/1
- concentrations of circulating macrophages and granulocytes compared with the corresponding experimental group (hemorrhagic shock; 5 mg/kg i.v.): significantly lower
- decrease of circulating macrophages and granulocytes compared with concentrations after trauma-hemorrhage (hemorrhagic shock; 5 mg/kg i.v.): 29.9%
- blood flow in the hepatic artery during the reperfusion (hemorrhagic shock; reperfusion, 5 mg/kg i.v., shock group 128.9±75.4%, control 83.7±24.2%): 78.4±28.3%
- arterial hepatic blood flow during the shock period (hemorrhagic shock; 5 mg/kg i.v.): 18.1±9.0%
- TNF-α transcripts in the liver compared to non-treated HS (TNF-α [2]): reduction
- increase in plasma TNF-α levels during the experiment (TNF-α [3]): none
- TNF-α plasma levels (TNF-α [3]): significant reduction
- ICAM-1 transcript levels in the liver (ICAM-1): did not affect
- IL-6 plasma levels compared to the non-treated hemorrhagic shock group (IL-6 [4]): significant reduction

Substance: LQGV [synthetic tetrapeptide, part of the primary structure of loop two of the β-subunit of hCG]
- IL-6 mRNA transcripts in the liver compared to the HS group (IL-6 [1]): significant reduction
- leukocyte concentration, peptide-treated vs non-treated animals (hemorrhagic shock): No significant difference
- leukocytes, minimum during trauma-hemorrhage (hemorrhagic shock): 38.2±7.4%
- concentrations of circulating macrophages and granulocytes compared to the non-treated animals (hemorrhagic shock): decreased
- blood levels of circulating macrophages and granulocytes (hemorrhagic shock; 5 mg/kg i.v.): 3,846±0.636 10^9/1
- concentrations of circulating macrophages and granulocytes compared with the corresponding experimental group (hemorrhagic shock; 5 mg/kg i.v.): significantly lower
- decrease of circulating macrophages and granulocytes compared with concentrations after trauma-hemorrhage (hemorrhagic shock; 5 mg/kg i.v.): 39.2%
- arterial hepatic blood flow during the shock period (hemorrhagic shock; 5 mg/kg i.v.): 21.2±8.6%
- TNF-α transcripts in the liver compared to non-treated HS (TNF-α [2]): significant reduction
- increase in plasma TNF-α levels during the experiment (TNF-α [3]): none
- TNF-α plasma levels (TNF-α [3]): significant reduction
- ICAM-1 transcript levels in the liver (ICAM-1): did not affect
- IL-6 plasma levels compared to the non-treated hemorrhagic shock group (IL-6 [4]): significant reduction
